# In patent publication US20260138961A1, “MODULATORS OF MITOCHONDRIAL DNA REPLICATION” (Pretzel Therapeutics, Inc., priority 2022, published 2026):
# Target: T1, wild type human POLγ (POLγA:WT) (Homo sapiens, UniProt P54098)
# T1 sequence (P54098 1-1239): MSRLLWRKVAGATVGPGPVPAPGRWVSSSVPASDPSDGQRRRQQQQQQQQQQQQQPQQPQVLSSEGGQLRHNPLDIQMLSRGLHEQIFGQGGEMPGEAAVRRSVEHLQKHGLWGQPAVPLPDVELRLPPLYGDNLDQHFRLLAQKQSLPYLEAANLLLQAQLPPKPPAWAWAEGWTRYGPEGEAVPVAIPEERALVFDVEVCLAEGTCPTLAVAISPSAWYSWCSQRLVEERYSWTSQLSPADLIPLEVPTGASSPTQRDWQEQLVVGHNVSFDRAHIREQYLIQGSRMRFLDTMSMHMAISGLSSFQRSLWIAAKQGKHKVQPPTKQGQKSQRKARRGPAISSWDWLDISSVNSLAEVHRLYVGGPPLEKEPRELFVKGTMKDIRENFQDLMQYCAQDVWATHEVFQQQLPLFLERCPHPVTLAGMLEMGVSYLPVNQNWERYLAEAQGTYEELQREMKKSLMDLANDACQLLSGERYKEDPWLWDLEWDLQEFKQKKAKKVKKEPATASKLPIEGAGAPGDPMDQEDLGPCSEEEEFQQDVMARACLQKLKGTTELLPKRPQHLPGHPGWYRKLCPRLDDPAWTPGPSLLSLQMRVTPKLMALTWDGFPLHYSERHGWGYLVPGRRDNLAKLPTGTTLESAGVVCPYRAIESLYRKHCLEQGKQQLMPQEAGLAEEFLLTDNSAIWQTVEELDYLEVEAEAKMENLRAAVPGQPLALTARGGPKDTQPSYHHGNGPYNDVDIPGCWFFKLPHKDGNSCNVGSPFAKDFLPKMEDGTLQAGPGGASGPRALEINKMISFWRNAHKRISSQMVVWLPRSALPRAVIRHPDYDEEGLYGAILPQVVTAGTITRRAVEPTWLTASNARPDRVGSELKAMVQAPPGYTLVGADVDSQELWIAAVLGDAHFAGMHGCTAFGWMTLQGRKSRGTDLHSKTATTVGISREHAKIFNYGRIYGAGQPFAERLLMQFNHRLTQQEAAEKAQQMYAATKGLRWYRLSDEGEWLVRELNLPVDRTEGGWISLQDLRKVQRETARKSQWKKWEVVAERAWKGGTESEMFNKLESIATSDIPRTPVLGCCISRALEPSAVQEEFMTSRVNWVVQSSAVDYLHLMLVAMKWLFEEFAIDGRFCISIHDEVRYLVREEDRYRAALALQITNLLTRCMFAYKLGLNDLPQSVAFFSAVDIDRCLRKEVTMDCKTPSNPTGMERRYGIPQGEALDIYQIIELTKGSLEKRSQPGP
# T1 sequence (Q9UHN1 1-485 partner): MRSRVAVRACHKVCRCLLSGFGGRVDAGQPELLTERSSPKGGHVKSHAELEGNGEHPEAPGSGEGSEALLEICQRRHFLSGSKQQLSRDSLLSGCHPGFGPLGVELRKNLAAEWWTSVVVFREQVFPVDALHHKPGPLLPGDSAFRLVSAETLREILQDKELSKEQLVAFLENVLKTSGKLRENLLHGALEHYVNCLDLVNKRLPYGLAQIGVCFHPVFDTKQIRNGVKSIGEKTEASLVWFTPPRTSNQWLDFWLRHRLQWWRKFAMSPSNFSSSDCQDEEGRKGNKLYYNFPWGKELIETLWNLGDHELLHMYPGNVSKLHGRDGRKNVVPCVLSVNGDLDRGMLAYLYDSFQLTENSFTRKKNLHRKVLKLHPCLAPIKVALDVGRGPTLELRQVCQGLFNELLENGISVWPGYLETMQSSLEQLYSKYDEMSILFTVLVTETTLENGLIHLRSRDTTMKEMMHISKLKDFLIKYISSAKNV
# Assay: DNA polymerization assay, wild type POLγ
# Type: biochemical
# Details: 0.1 μM dNTP, read-out: WT AC50 (μM) at 0.1 μM
# Procedure: DNA Polymerization Assay to Monitor Effects on Human Wildtype POLγ and Four Disease-Causing Mutant Variants of Human POLγ.
# The ability of small molecules to stimulate the polymerase activity of POLγ was analyzed in a quantitative fluorescence SYBR Green I assay with fluorescence intensity (FI) readout.
# In the presence of dNTPs, wild type human POLγ and mutant derivatives thereof were incubated with single-stranded, circular M13mp18 ssDNA hybridized to a short DNA oligonucleotide that functions as a primer for initiation of DNA synthesis. POLγ and mutant derivatives thereof will extend the primer and use the M13mp18 molecule as a template to synthesize long stretches of double-stranded DNA. SYBR Green I, which is a double-stranded DNA-binding dye, was used to quantify formation of double-stranded DNA in the reaction. When bound to double-stranded DNA, SYBR Green I fluorescence increases by up to 100-fold.
# The assay was performed in the 384-well plate format. Upon addition of compounds, changes in double-stranded DNA synthesis activity can be monitored by following effects on fluorescent intensity.
# The reactions also contained the accessory POLγB subunit, and the human mitochondrial single-stranded DNA binding protein (mtSSB).
# The DNA template mixture used in the assay contained 0.5 nM primed M13 mp18 ssDNA, 400 nM mtSSB, 0.1 mM Tris-HCl (pH 8.0), 0.1 mM dNTP, 10 mM MgCl2, 0.1 mg/mL BSA, 1 mM TCEP solution, and 0.02% Triton X-100. The DNA template mixture for the wild type protein contained either 100 μM dNTP, 1 μM dNTP, or 0.1 μM dNTP, designated in Table 2 as 100 μM, 1 μM, and 0.1 μM, respectfully.
# Microplates with compounds (0.1 μL in each well) to be tested in the assay were prepared from 10 mM compound stocks in 100% DMSO, and equal amounts of DMSO without any compound were added to positive and negative control wells.
# The protein mixture was dispensed (5 μL into each well) into compound plates and incubated at 37° C. for 15 minutes. After incubation, 5 μL of the DNA template mixture was dispensed into each well. The plates were then incubated at 37° C. for 2 hours.
# During incubation, a combined stop buffer and detection reagent solution was prepared. The buffer contained 25 mM EDTA (pH 8.0), 0.02% Triton X-100, and SYBR Green I [Invitrogen] diluted 10,000× (for fluorescent readout). EDTA will stop the enzymatic reaction by chelating magnesium ions.
row,AC50 [µM],Structure (SMILES)
1,1,"Cc1cc(S(=O)(=O)Nc2cc(C(=O)N3CCC[C@H]3C)ccc2F)c(C)cc1Cl [Example 50, (R)-4-chloro-N-(2-fluoro-5-(2-methylpyrrolidine-1-carbonyl)phenyl)-2,5-dimethylbenzenesulfonamide]"
2,> 100,"Cc1ccc(C)c(S(=O)(=O)Nc2cccc(C(=O)N3CCSCC3C(N)=O)c2)c1 (stereo not drawn) [Example 41, 4-(3-((2,5-dimethylphenyl)sulfonamido)benzoyl) thiomorpholine-3-carboxamide]"
3,2,"CC(=O)N1CCN(C(=O)c2cccc(NS(=O)(=O)c3cc(C)ccc3C)c2)CC1 [Example 30, N-(3-(4-acetylpiperazine-1-carbonyl)phenyl)-2,5-dimethylbenzenesulfonamide]"
4,1,"Cc1cc(S(=O)(=O)Nc2cccc(C(=O)N3CCN(C)C[C@H]3C)c2)c(C)cc1Cl [Example 54, (R)-4-chloro-N-(3-(2,4-dimethylpiperazine-1-carbonyl)phenyl)-2,5-dimethylbenzenesulfonamide]"
5,2,"Cc1cc(S(=O)(=O)Nc2ccc(F)c(C(=O)N3CCC[C@H]3C)c2)c(C)cc1Cl [Example 49, (R)-4-chloro-N-(4-fluoro-3-(2-methylpyrrolidine-1-carbonyl)phenyl)-2,5-dimethylbenzenesulfonamide]"

# Same assay, conditions: 100 μM dNTP, read-out: WT AC50 (μM) at 100 μM
row,Structure (SMILES),AC50 [µM]
1,Cc1ccc(C)c(S(=O)(=O)Nc2cccc(-c3nccs3)c2)c1 [Example 60],0.6
2,"Cc1cc(S(=O)(=O)Nc2cccc(C(=O)N(C)C(C)CO)c2)c(C)cc1Cl (single isomer, unassigned) [Example 15, 3-((4-chloro-2,5-dimethylphenyl)sulfonamido)-N-(1-hydroxypropan-2-yl)-N-methylbenzamide]",> 10
3,"Cc1cc(S(=O)(=O)Nc2cccc(-c3cc(C4CC4)[nH]n3)c2)c(C)cc1Cl [Example 64, 4-chloro-N-(3-(5-cyclopropyl-1H-pyrazol-3-yl)phenyl)-2,5-dimethylbenzenesulfonamide]",0.7
4,"Cc1csc(-c2cccc(NS(=O)(=O)c3cc(C)c(Cl)cc3C)c2)n1 [Example 20, 4-chloro-2,5-dimethyl-N-(3-(4-methylthiazol-2-yl)phenyl)benzenesulfonamide]",0.3
5,"Cc1cc(-c2cccc(NS(=O)(=O)c3cc(C)c(Cl)cc3C)c2)n[nH]1 [Example 66, 4-chloro-2,5-dimethyl-N-(3-(5-methyl-1H-pyrazol-3-yl)phenyl)benzenesulfonamide]",0.5

# Second part, the compound after the results:
row,AC50 [µM],Structure (SMILES)
1,> 100,"Cc1cc(S(=O)(=O)Nc2csc(C(=O)N(CC(N)=O)C3CCCC3)n2)c(C)cc1Cl [Example 177, N-(2-amino-2-oxoethyl)-4-((4-chloro-2,5-dimethylphenyl)sulfonamido)-N-cyclopentylthiazole-2-carboxamide]"
2,> 10,"Cc1cc(S(=O)(=O)Nc2nc(-c3ccccc3)n(C)n2)c(C)cc1Cl [Example 180, 4-chloro-2,5-dimethyl-N-(1-methyl-5-phenyl-1H-1,2,4-triazol-3-yl)benzenesulfonamide]"
3,0.2,"Cc1cc(S(=O)(=O)Nc2cccc(-c3cc[nH]n3)c2)c(C)cc1Cl [Example 68, N-(3-(1H-pyrazol-3-yl)phenyl)-4-chloro-2,5-dimethylbenzenesulfonamide]"
4,4,"Cc1cc(S(=O)(=O)Nc2csc(C3CCOCC3)n2)c(C)cc1Cl [Example 167, 4-chloro-2,5-dimethyl-N-(2-(tetrahydro-2H-pyran-4-yl)thiazol-4-yl)benzenesulfonamide]"
5,> 100,"Cc1cc(S(=O)(=O)Nc2csc(-n3cccn3)n2)c(C)cc1Cl [Example 178, N-(2-(1H-pyrazol-1-yl)thiazol-4-yl)-4-chloro-2,5-dimethylbenzenesulfonamide]"
6,> 100,"Cc1cc2cc(NS(=O)(=O)c3cc(C)c(Cl)cc3C)ccc2[nH]1 [Example 184, 4-chloro-2,5-dimethyl-N-(2-methyl-1H-indol-5-yl)benzenesulfonamide]"
7,0.1,"Cc1cc(S(=O)(=O)Nc2csc(C(=O)N3CCC[C@H]3C)n2)c(C)cc1Cl [Example 174, (R)-4-chloro-2,5-dimethyl-N-(2-(2-methylpyrrolidine-1-carbonyl)thiazol-4-yl)benzenesulfonamide]"
8,> 10,"Cc1cc(S(=O)(=O)Nc2csc(C(=O)N(CC(N)=O)C3CCCCC3)n2)c(C)cc1Cl [Example 179, N-(2-amino-2-oxoethyl)-4-((4-chloro-2,5-dimethylphenyl)sulfonamido)-N-cyclohexylthiazole-2-carboxamide]"
9,11,"Cc1nc2ccc(NS(=O)(=O)c3cc(C)c(Cl)cc3C)cc2o1 [Example 70, 4-chloro-2,5-dimethyl-N-(2-methylbenzo[d]oxazol-6-yl)benzenesulfonamide]"
10,0.4,"Cc1cc(S(=O)(=O)Nc2cccc(C(=O)N3CCCC34CC4)c2)c(C)cc1Cl [Example 162, N-(3-(4-azaspiro[2.4]heptane-4-carbonyl)phenyl)-4-chloro-2,5-dimethylbenzenesulfonamide]"
11,> 10,"Cc1cc(S(=O)(=O)Nc2cn(-c3ccccc3)cn2)c(C)cc1Cl [Example 169, 4-chloro-2,5-dimethyl-N-(1-phenyl-1H-imidazol-4-yl)benzenesulfonamide]"
12,> 10,"Cc1cc(S(=O)(=O)Nc2cccc(C(=O)N3CCC[C@H]3C(C)C)c2)c(C)cc1Cl [Example 67, (S)-4-chloro-N-(3-(2-isopropylpyrrolidine-1-carbonyl)phenyl)-2,5-dimethylbenzenesulfonamide]"
13,> 100,"Cc1cc(S(=O)(=O)Nc2csc(-c3ccncc3)n2)c(C)cc1Cl [Example 176, 4-chloro-2,5-dimethyl-N-(2-(pyridin-4-yl)thiazol-4-yl)benzenesulfonamide]"
14,> 10,"Cc1cc(S(=O)(=O)Nc2cn(Cc3ccccc3)cn2)c(C)cc1Cl [Example 168, N-(1-benzyl-1H-imidazol-4-yl)-4-chloro-2,5-dimethylbenzenesulfonamide]"
